The results in this text go back to PMC8058351, “Discovery of Kasugamycin as a Potent Inhibitor of Glycoside Hydrolase Family 18 Chitinases” (Frontiers in Molecular Biosciences, 2021).

Test [1] has as its target T1, OfChi-h (Ostrinia furnacalis, UniProt Q4AE59).
T1 construct: made in house; host or cells: Pichia pastoris GS115 (secreted)
The experiment in a line: Inhibitory activity determination with MU-β-(GlcNAc)2, Dixon plots. It counts as biochemical. An excerpt: (§1) The recombinant GH18 chitinases for inhibitory activity evaluation including OfChi-h and the catalytic domains of OfChtI from Ostrinia furnacalis (O. furnacalis), human HsCht and acidic mammalian chitinase (AMCase) were extracellularly expressed in Pichia pastoris GS115. SmChiA from Serratia marcescens was expressed in Escherichia coli BL21 (DE3). All the proteins were purified from the culture medium by immobilized metal affinity chromatography (IMAC) as described previously ([Chen et al., 2014]). The purities of the target proteins were analyzed by SDS-PAGE followed by Coomassie Brilliant Blue R-250 staining.
(§2) 20 nM enzyme was incubated with 10 μL substrate [0.2 μM MU-β-(GlcNAc)2] in 20 mM sodium phosphate buffer (pH 6.0 for OfChi-h, OfChtI, HsCht and SmChiA, and pH 5.2 for AMCase) containing 2 μL inhibitor at 30°C. The reaction in the absence of inhibitor and substrate was used as the control. After 30 min, an equal volume of 0.5 M Na2CO3 was added to the reaction mixture to stop the reaction, and the fluorescence of the released MU was quantitated using an Infinite® 200 PRO microplate reader (Tecan, Swiss) with excitation and emission wavelengths of 360 and 450 nm, respectively. Experiments were performed in triplicate. For the determination of the mode of inhibition and the inhibition constant (K i) value, the reaction mixtures contained three MU-β-(GlcNAc)2 concentrations (5, 10 and 20 μM for OfChi-h, AMCase and SmChiA; 5, 7.5 and 10 μM for HsCht; and 1, 2 and 4 μM for OfChtI). The inhibitor concentration varied according to the inhibitory activity. The Ki values and types of inhibition were determined by linear fitting of data in Dixon plots.

The target of test [2] is T2, AMCase (Homo sapiens, UniProt Q9BZP6).
T2 construct: the catalytic domains of OfChtI from Ostrinia furnacalis (O. furnacalis), human HsCht and acidic mammalian chitinase (AMCase); made in house; host or cells: Pichia pastoris GS115 (secreted)
T2 sequence (Q9BZP6 22-390 limits assumed): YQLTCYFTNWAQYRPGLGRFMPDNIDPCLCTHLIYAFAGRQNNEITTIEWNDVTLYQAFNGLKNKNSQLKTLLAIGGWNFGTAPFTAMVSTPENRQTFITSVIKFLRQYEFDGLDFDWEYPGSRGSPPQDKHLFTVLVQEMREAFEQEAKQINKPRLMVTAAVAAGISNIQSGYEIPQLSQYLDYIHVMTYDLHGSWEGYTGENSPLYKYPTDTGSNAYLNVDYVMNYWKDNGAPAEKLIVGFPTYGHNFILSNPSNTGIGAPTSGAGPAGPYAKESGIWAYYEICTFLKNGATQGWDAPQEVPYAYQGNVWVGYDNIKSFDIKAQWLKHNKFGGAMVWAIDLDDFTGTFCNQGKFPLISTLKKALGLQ
The description is as above. The format is biochemical.
From the text: as §1, §2

In test [3] the target is T3, SmChiA (Serratia marcescens, UniProt P07254).
T3 construct: made in house; host or cells: Escherichia coli BL21 (DE3)
T3 sequence (P07254 24-563): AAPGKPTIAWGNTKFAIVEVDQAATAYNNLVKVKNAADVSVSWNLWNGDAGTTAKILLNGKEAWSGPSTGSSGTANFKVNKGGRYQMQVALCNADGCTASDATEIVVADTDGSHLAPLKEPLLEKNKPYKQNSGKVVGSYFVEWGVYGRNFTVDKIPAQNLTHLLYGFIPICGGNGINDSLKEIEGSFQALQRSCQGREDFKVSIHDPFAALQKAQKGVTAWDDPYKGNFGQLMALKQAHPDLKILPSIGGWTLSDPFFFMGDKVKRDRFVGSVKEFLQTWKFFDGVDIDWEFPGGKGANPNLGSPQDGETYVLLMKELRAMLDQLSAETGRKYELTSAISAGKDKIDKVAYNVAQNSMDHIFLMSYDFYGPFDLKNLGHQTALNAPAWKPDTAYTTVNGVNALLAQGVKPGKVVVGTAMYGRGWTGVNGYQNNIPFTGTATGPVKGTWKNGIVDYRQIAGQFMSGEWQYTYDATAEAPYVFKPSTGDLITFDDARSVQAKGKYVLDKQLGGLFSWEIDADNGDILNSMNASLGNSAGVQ
Described as above. It counts as biochemical.
From the text: as §1, §2

Test [4] deals with T4, HsCht (Homo sapiens, UniProt Q13231).
T4 construct: the catalytic domains of OfChtI from Ostrinia furnacalis (O. furnacalis), human HsCht and acidic mammalian chitinase (AMCase); made in house; host or cells: Pichia pastoris GS115 (secreted)
T4 sequence (Q13231 22-388 limits assumed): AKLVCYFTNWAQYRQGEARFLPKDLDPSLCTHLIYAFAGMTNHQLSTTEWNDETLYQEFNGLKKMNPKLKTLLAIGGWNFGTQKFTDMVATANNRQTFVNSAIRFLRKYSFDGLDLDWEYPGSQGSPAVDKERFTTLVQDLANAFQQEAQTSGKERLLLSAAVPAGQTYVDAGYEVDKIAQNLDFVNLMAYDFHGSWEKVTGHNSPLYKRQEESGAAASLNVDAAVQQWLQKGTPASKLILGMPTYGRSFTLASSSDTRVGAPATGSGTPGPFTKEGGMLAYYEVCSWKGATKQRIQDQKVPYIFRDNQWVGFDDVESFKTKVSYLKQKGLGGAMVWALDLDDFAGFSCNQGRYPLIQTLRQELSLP
The test is described as above. It counts as biochemical.
From the text: as §1, §2

For test [5], the target named is T5, OfChtI (Ostrinia furnacalis, UniProt Q2V6H4). The description is as above. It counts as biochemical.
T5 sequence (Q2V6H4 19-407): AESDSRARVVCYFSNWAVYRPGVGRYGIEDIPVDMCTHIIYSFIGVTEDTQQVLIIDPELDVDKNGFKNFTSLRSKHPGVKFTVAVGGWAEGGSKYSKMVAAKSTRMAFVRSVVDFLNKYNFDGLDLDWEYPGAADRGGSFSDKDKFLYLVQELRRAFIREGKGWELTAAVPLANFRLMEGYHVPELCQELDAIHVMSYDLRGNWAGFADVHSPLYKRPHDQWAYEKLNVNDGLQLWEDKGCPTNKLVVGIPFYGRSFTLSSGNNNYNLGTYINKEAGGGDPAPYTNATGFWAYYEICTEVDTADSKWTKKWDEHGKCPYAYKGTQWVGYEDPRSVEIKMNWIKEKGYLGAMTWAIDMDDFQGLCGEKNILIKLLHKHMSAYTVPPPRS
From the text: as §1, §2

Test [6] has as its target T1, OfChi-h. The experiment in a line: Tryptophan fluorescence quenching spectroscopy. It counts as binding.
From the text: as §1
(§3) All tryptophan fluorescence spectroscopy experiments were performed using the Infinite® 200 PRO microplate reader (Tecan, Swiss). The excitation wavelength was fixed to 285 nm and emission spectra were collected between 320 and 450 nm with a slit width of 2 nm. The temperature was maintained at 30°C. Fluorescence quenching experiments were performed in a 100 μL mixture containing 1 μM protein in the 20 mM sodium phosphate buffer (pH 6.0 for OfChi-h, OfChtI, HsCht and SmChiA, and pH 5.2 for AMCase), and by the successive addition of 1 μL compounds stock solution. The inhibitor concentration varied according to the enzyme activity. The dissociation constant (K d) value was analyzed by nonlinear regression with the “One Site-Specific Binding” model using GraphPad Prism 7.04.

Test [7] concerns the target T2, AMCase. The experiment in a line: Tryptophan fluorescence quenching spectroscopy. It counts as binding.
From the text: as §1, §3

Test [8] concerns the target T3, SmChiA. The experiment in a line: Tryptophan fluorescence quenching spectroscopy. The format is binding.
From the text: as §1, §3

Test [9] deals with T4, HsCht. In words: Tryptophan fluorescence quenching spectroscopy. It counts as binding.
From the text: as §1, §3

In test [10] the target is T5, OfChtI. The experiment in a line: Tryptophan fluorescence quenching spectroscopy. It counts as binding.
From the text: as §1, §3

T1 sequence (Q4AE59 18-553): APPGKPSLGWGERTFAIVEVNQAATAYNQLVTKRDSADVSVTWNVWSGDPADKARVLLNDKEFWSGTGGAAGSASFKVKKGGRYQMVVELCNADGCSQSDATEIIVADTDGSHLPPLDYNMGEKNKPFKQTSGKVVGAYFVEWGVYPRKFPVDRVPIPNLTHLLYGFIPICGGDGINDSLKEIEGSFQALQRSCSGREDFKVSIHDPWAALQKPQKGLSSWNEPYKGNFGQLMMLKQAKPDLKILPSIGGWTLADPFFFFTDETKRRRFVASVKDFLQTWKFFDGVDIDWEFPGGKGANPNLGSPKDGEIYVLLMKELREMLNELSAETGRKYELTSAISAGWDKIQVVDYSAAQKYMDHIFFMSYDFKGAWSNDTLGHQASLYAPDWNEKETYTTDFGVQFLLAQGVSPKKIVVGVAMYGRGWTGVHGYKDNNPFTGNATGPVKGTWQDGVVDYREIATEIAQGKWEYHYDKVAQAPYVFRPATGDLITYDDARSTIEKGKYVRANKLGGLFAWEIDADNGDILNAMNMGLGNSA

In the case of `C[C@H]1O[C@H](O[C@H]2[C@H](O)[C@@H](O)[C@@H](O)[C@H](O)[C@@H]2O)[C@@H](N)C[C@@H]1NC(=N)C(=O)O` [kasugamycin, Kasugamycin], the Ki (as a rule, a dissociation constant, usually derived from enzyme kinetics or from competition with a known ligand) at OfChi-h [1] was 2.7 µM; at AMCase [2], 6.27 µM; at SmChiA [3], 29 µM; on HsCht [4] (K i in the buffer with 1.0 M NaCl, buffer containing 1.0 M NaCl), 1.62 µM; on HsCht [4] (K i, 20 mM sodium phosphate buffer pH 6.0, 30°C) it was 0.25 µM; at OfChtI [5], 0.47 µM. For the same molecule, the mode of inhibition entry was “competitive” on OfChi-h [1] (OfChi-h, inhibition kinetics); “competitive” at AMCase [2] (AMCase, inhibition kinetics); “competitive” on SmChiA [3] (SmChiA, inhibition kinetics); “competitive” on HsCht [4] (inhibition kinetics); “competitive” at OfChtI [5] (OfChtI, inhibition kinetics). Moreover, at HsCht [4] (1.0 M NaCl vs. standard buffer), the “increase of K i in buffer containing 1.0 M NaCl” value was 6 fold. For the same molecule, the inhibition (commonly the share of the control response that was lost under treatment) at 10 µM on OfChtI [5] (at 10 μM, preliminary screening of a natural products library, read-out: inhibition against OfChtI) amounted to 92.5%. In addition, the equilibrium dissociation constant (Kd) (in general, the constant that tells how readily two partners part at equilibrium) at OfChi-h [6] is 11.5 µM; on AMCase [7], 15.8 µM; at SmChiA [8], 34.1 µM; at HsCht [9], 0.92 µM; at OfChtI [10], 3.96 µM.
